Laboratory results published in article doi:10.1101/2020.09.29.318170v1 (biorxiv, 2020).
Values belong to the compound of their own block, whether it stands above or below them.

Tests used:
Type in all cases: biochemical
Pd27 (with ΔNHAB1) = target: T1, Pd27 (with ΔNHAB1) (Phoenix dactylifera, UniProt A0A8B7BJV2); test: pNPP phosphatase inhibition assay
T1 sequence (A0A8B7BJV2 1-205): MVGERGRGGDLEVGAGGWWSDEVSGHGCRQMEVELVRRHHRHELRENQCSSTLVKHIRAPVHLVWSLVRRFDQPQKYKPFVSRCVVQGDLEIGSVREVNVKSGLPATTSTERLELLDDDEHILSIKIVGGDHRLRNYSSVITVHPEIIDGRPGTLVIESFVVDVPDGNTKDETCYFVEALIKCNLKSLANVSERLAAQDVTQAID
T1 sequence (Q9CAJ0 179-511 partner limits assumed): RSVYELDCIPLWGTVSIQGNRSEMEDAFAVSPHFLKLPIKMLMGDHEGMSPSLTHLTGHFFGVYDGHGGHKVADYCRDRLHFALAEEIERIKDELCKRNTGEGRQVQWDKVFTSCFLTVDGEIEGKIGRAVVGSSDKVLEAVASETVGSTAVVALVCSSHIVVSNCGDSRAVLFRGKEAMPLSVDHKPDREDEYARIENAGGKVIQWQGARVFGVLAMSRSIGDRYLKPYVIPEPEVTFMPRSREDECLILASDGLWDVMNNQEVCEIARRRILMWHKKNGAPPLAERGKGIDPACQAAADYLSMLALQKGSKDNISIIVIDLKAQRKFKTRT

Pd957 (with ΔNHAB1) = target: T2, Pd957 (with ΔNHAB1) (Phoenix dactylifera, UniProt A0A8B7BRF0); test: pNPP phosphatase inhibition assay; settings: read-out: % inhibition of HAB1 at 10 μM
T2 sequence (A0A8B7BRF0 1-215): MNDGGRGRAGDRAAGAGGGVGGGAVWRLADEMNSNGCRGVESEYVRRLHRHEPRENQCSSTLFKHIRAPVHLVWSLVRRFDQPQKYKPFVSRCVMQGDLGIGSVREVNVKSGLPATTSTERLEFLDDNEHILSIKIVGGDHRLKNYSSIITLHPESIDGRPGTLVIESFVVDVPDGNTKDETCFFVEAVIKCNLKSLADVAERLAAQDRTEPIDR
T2 sequence (Q9CAJ0 179-511 partner limits assumed): T1 sequence (Q9CAJ0 179-511 partner limits assumed)

Pd32 (with PdPP2C55) = target: T3, Pd32 (with PdPP2C55) (Phoenix dactylifera, UniProt A0A8B7C461); test: phosphopeptide phosphatase inhibition assay; settings: read-out: % inhibition of PdPP2C55 at 10 μM ABA
T3 sequence (A0A8B7C461 1-202): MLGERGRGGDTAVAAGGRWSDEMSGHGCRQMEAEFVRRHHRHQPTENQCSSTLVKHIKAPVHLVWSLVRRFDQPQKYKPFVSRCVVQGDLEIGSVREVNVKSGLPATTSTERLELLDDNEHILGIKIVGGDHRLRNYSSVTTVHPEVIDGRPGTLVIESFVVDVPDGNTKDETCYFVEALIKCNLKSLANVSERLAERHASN

Pd32 (with PdPP2C79) = target: T4, Pd32 (with PdPP2C79) (Phoenix dactylifera, UniProt A0A8B7C461); test: phosphopeptide phosphatase inhibition assay; settings: read-out: % inhibition of PdPP2C79 at 10 μM ABA
T4 sequence (A0A8B7C461 1-202): T3 sequence (A0A8B7C461 1-202)

% inhibition of HAB1 at 10 μM (Pd27 (with ΔNHAB1); 10 μM agonist, 1 μM ΔNHAB1, 2 μM receptor, 15 mM pNPP, receptor agonist): 80%
SMILES: CCCN1C(=O)CCc2cc(NS(=O)(=O)Cc3c(F)c(F)c(C)c(F)c3F)ccc21 [AMF4]

inhibition at 10 µM (Pd27 (with ΔNHAB1); read-out: % inhibition of HAB1 at 10 μM): 80%
inhibition at 10 µM (Pd957 (with ΔNHAB1)): 20 to 30%
SMILES: CCCN1C(=O)CCc2cc(NS(=O)(=O)Cc3ccc(C)cc3)ccc21 [quinabactin]

inhibition at 10 µM (Pd32 (with PdPP2C55)): 80%
inhibition at 10 µM (Pd32 (with PdPP2C79)): 30%
SMILES: CC1=CC(=O)CC(C)(C)[C@@]1(O)/C=C/C(C)=C\C(=O)O [ABA]
